Target: T1, urease enzyme (Canavalia ensiformis, UniProt P07374)
T1 construct: purchased CAS Number: 9002-13-5
Experiment: Urease inhibition assay (modified Berthelot assay)
Format: biochemical, Canavalia ensiformis (Jack bean)
Conditions: for inhibition at 100 µM: read-out: %Age Urease Inhibition Activity (0.1 mM)
Method: Chalcones are important medicinal compounds to combat several pathological conditions associated with ureolytic enzymes (urease). […] Urease inhibition assay was performed according to the reported protocol by Pervez et al..
All reagents and solvents were obtained from the supplier or recrystallized or redistilled as necessary. Thin-layer chromatography was performed using aluminum sheets (Merck) coated with silica gel 60 F254. Urease enzyme was purchased from Canavalia ensiformis (Jack bean), CAS Number: 9002-13-5. IR spectra were recorded using an IR PerkinElmer Spectrum 1 FTIR spectrophotometer, and peaks were reported as ax (neat)/cm^−1, which refer to the […] wave numbers. Proton magnetic resonance spectra were recorded in CDCl3 with a Bruker AM 300 spectrometer (Rheinstetten-Forchheim, Germany) operating at 300 MHz, respectively. The ^13C NMR spectra were recorded in CDCl3 with a Bruker AM 100 spectrometer operating at 100 MHz. Tetramethylsilane was used as an internal standard. Elemental analyses for C, H, and N were recorded with the PerkinElmer 2400 Series II CHN Analyzer. Melting points were recorded on a GallenKamp apparatus and are uncorrected.
The enzyme assay is a modified form of the commonly known Berthelot assay. A total volume of 85 µL assay mixture contained 10 µL of phosphate buffer at pH 7.0 in each well of the 96-well plate, to which 10 µL of sample solution and 25 µL of enzyme solution (0.1347 units) were added. The contents were pre-incubated at 37 °C for 5 min. Then, 40 µL of urea stock solution (20 mM) was added to each well, and incubation continued at 37 °C for another 10 min. After the given time, 115 µL phenol hypochlorite reagent was added to each well (freshly prepared by mixing 45 µL phenol reagent with 70 µL of alkali reagent). For color development, incubation was performed at 37 °C for another 10 min. Absorbance was measured at 625 nm using the 96-well plate reader Synergy HT.

T1 sequence (P07374 whole entry, looked up): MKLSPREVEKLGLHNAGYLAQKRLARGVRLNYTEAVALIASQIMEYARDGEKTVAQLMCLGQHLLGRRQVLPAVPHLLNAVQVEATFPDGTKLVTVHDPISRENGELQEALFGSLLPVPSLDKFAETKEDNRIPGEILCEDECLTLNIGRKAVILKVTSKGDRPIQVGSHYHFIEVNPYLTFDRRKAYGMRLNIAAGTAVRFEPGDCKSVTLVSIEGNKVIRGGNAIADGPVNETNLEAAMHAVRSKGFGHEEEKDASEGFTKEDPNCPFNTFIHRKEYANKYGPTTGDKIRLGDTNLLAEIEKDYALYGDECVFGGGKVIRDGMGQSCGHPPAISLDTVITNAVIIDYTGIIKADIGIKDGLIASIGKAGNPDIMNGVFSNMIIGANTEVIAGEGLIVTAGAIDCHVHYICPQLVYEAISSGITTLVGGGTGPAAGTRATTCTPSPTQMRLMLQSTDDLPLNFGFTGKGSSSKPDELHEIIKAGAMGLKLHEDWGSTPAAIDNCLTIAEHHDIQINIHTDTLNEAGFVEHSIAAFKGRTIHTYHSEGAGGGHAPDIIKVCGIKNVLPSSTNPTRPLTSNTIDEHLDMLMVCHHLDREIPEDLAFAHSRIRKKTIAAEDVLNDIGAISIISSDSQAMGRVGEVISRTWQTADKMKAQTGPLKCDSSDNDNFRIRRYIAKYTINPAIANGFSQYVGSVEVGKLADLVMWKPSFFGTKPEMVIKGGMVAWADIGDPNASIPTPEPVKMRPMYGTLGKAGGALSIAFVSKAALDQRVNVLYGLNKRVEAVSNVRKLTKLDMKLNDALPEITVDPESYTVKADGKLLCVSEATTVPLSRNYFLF

Structure (SMILES): O=C(/C=C/c1ccc(-c2cccc(Cl)c2)o1)c1ccccc1 [Compound 4k]
- IC50: 23.1 ± 3.65 µM
- inhibition at 100 µM: 69.52 ± 0.16%

Structure (SMILES): O=C(/C=C/c1ccc(-c2cc(Cl)ccc2Cl)o1)c1ccccc1 [Compound 4h, 1-phenyl-3-[5-(2′,5′-dichlorophenyl)-2-furyl]-2-propen-1-one]
- IC50: 16.1 ± 2.45 µM
- inhibition at 100 µM: 66.2 ± 1.36%

Structure (SMILES): O=C(O)c1cccc(-c2ccc(/C=C/C(=O)c3ccccc3)o2)c1 [Compound 4n]
- IC50: 46.8 ± 5.44 µM
- inhibition at 100 µM: 62.3 ± 1.28%

Structure (SMILES): O=C(/C=C/c1ccc(-c2ccc(Cl)cc2)o1)c1ccccc1 [Compound 4b]
- urease inhibition activity (in words): inactive
- inhibition at 100 µM: 27.15 ± 0.17%

Structure (SMILES): O=C(/C=C/c1ccc(-c2ccc(Br)cc2)o1)c1ccccc1 [Compound 4c]
- urease inhibition activity (in words): inactive
- inhibition at 100 µM: 39.41 ± 0.34%

Structure (SMILES): Cc1c(-c2ccc(/C=C/C(=O)c3ccccc3)o2)cccc1[N+](=O)[O-] [Compound 4r]
- urease inhibition activity (in words): inactive
- inhibition at 100 µM: 12.6 ± 3.37%

Structure (SMILES): Cc1cc(-c2ccc(/C=C/C(=O)c3ccccc3)o2)cc([N+](=O)[O-])c1 [Compound 4p]
- IC50: 52.6 ± 8.52 µM
- inhibition at 100 µM: 57.4 ± 3.02%

Structure (SMILES): O=C(/C=C/c1ccc(-c2cccc([N+](=O)[O-])c2)o1)c1ccccc1 [Compound 4d]
- urease inhibition activity (in words): inactive
- inhibition at 100 µM: 46.5 ± 0.91%

Structure (SMILES): O=C(/C=C/c1ccc(-c2ccc(Cl)c(Cl)c2)o1)c1ccccc1 [Compound 4f, 1-phenyl-3-[5-(3′,4′-dichlorophenyl) -2-furyl]-2-propen-1-one]
- IC50: 21 ± 3.52 µM
- inhibition at 100 µM: 69.7 ± 1.86%

Structure (SMILES): O=C(/C=C/c1ccc(-c2ccc([N+](=O)[O-])cc2[N+](=O)[O-])o1)c1ccccc1 [Compound 4q]
- IC50: 44.4 ± 6.91 µM
- inhibition at 100 µM: 54.7 ± 0.73%

Structure (SMILES): O=C(/C=C/c1ccc(-c2ccc(Cl)cc2Cl)o1)c1ccccc1 [Compound 4o]
- IC50: 34 ± 9.61 µM
- inhibition at 100 µM: 54.9 ± 1.98%

Structure (SMILES): O=C(/C=C/c1ccc(-c2cccc(Cl)c2[N+](=O)[O-])o1)c1ccccc1 [Compound 4j]
- IC50: 26 ± 2.25 µM
- inhibition at 100 µM: 68.24 ± 0.11%

Structure (SMILES): O=C(/C=C/c1ccc(-c2cc(Cl)ccc2[N+](=O)[O-])o1)c1ccccc1 [Compound 4i]
- IC50: 90.8 ± 8.99 µM
- inhibition at 100 µM: 51.7 ± 1.62%

Structure (SMILES): O=C(/C=C/c1ccc(-c2ccc([N+](=O)[O-])cc2Cl)o1)c1ccccc1 [Compound 4m]
- IC50: 26.7 ± 0.65 µM
- inhibition at 100 µM: 63.1 ± 0.86%

Structure (SMILES): O=C(O)c1ccc(-c2ccc(/C=C/C(=O)c3ccccc3)o2)cc1 [Compound 4e]
- IC50: 25 ± 1.77 µM
- urease inhibition activity (in words): inactive
- inhibition at 100 µM: 65.5 ± 0.77%

Structure (SMILES): O=C(/C=C/c1ccc(-c2ccccc2[N+](=O)[O-])o1)c1ccccc1 [Compound 4l]
- IC50: 91.4 ± 6.25 µM
- inhibition at 100 µM: 51.47 ± 0.41%

Structure (SMILES): O=C(/C=C/c1ccc(-c2cc(Cl)cc(Cl)c2)o1)c1ccccc1 [Compound 4g]
- urease inhibition activity (in words): inactive
- inhibition at 100 µM: 39.7 ± 2.46%

Structure (SMILES): O=C(/C=C/c1ccc(-c2ccc([N+](=O)[O-])cc2)o1)c1ccccc1 [Compound 4a]
- IC50: 91.9 ± 2.24 µM
- inhibition at 100 µM: 50.7 ± 0.62%

Structure (SMILES): O=C(/C=C/c1ccc(-c2ccccc2Cl)o1)c1ccccc1 [Compound 4s, 1-phenyl-3-[5-(2′-chlorophenyl)-2-furyl]-2-propen-1-one]
- IC50: 18.7 ± 0.85 µM
- inhibition at 100 µM: 71.4 ± 1.77%

— publication PMC10525509, “Exploring the Synthetic Chemistry of Phenyl-3-(5-aryl-2-furyl)- 2-propen-1-ones as Urease Inhibitors: Mechanistic Approach through Urease Inhibition, Molecular Docking and Structure–Activity Relationship” (Biomedicines, 2023)
